Test results reported in US20230001026A1, “PHAR[…] UNITS AND METHODS FOR CONCOMITANT ADMINISTRATION OF RADIOTRACERS” (LikeMinds, Inc., priority 2019, published 2023).
“And” between values parts separate entries of the source, which are not always exact repeats. Equal values may be shown once. Read-outs that look alike come from different tables or passages of the source.

Legend:
[1] = target: T1, DAT in the striatum (Homo sapiens, UniProt Q01959); assay: SPECT imaging of radiotracer binding to DAT after i.v. injection; format: in vivo; design: from tissue; host or cells: striatum of living patients (in vivo SPECT)
T1 sequence (Q01959 whole entry): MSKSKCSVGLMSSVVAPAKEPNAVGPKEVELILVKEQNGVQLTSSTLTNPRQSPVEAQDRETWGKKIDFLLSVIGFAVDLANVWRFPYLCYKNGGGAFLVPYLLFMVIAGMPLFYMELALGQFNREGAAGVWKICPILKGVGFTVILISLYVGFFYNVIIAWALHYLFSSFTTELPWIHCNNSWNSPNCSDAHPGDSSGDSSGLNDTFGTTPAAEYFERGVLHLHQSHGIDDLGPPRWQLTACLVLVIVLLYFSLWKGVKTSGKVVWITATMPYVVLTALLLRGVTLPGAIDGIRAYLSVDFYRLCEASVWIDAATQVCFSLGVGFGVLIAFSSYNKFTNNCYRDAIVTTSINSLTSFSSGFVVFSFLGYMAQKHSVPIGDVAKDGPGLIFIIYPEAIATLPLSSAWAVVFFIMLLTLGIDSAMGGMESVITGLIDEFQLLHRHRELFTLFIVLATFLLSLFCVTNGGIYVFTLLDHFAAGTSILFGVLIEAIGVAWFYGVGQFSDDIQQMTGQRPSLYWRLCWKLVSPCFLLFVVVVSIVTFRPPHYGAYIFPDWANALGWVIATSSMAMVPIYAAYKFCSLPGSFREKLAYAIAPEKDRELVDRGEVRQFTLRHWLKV
From the text: More recently, the SN to striatum pathway of a live patient has become assessible by viewing images of the striatum obtained by various noninvasive imaging techniques. Such non-invasive methods use single photon emission computed tomography (SPECT) assessment measuring the uptake/binding of a radiolabeled imagining agent that binds to dopamine transporters (DAT) in the striatum. Currently, the only SPECT radiopharmaceutical approved for use in the United States, the European Union, and Canada is DaTSCAN® (N-ω-fluoropropyl-2β-carbomethoxy-3β-(4-iodophenyl) nortropane), which is radiolabeled with ^123I. After injection of DaTSCAN, the patient must wait 3 hr for its uptake into systemic circulation, and transition through the blood brain barrier into the parenchyma of the brain tissue until it reaches stable binding to DAT. At that point, radioactivity (counts) can be collected and quantified, and a visual image can be acquired via SPECT. The visual image is compiled for reading by experts who then determine if there is evidence of DAT density loss in the striatum. In the case of a patient with Parkinson's disease, an asymmetrical pattern of binding in the striatum is observed in the image, whereas in the non-parkinsonian tremor patient, the pattern is visible as bilateral and symmetrical (i.e., “normal) (Lewis et al. (2012) Practitioner 1748: 21-24). This information is used by treating physicians in determining diagnosis and subsequent treatment.
SPECT and PET are procedures in which the isotope bound to DaT2020 or derivatives thereof is measured once the agent has been administered and has reached stable binding in the ROI. Once entering the blood stream, it travels throughout the body (e.g., brain, liver, kidney, heart, lungs, and the peripheral vascular system) and binds to DAT in various regions of the body including the striatum. The time it takes to reach stable binding (to eliminate background noise to form a clearer image) depends on the ROI and the depth of the tissue penetrated by the agent.
In SPECT, the single emitted photon passes into the camera and strikes a scintillation crystal which, in turn, is viewed by a large number of photomultiplier tubes. The output voltages generated by the photomultiplier tubes are fed to a position circuit which produces four output signals. These signals contain information about the position and intensity of where the photon struck the crystal (scintillations). These signals (which “unblank” or “light up” the receiver, e.g., a cathode ray oscilloscope) for each photon are then fed into the memory circuitry of a computer and stored. […] Therefore, one can obtain counts and process them for quantitation at any single moment or over varying periods of time during a single scan session. In order to construct an image, a scan session must collect millions of counts over time in order to produce enough detail for a human reader to evaluate. […]
SPECT acquisition is performed on a SPECT/CT or stand-alone SPECT with at least two imaging heads fitted with collimators (parallel-beam and fan beam collimators with manufacturer specified (or measured according to NEMA standards) planar system resolution of <8 mm FWHM (in ‘air’ at 10 cm distance). Raw projection data (or counts) are acquired as described in Djang et al. (2013) Nuclear Med. Mol. Imaging 47(2):73-80), step-and-shoot mode with angle increments of 3° can be used. […]

[2] = sponsored clinical trials: safety and radiation dose of bolus injection; format: in vivo, human
Protocol: Such buffers include, but are not limited to, ethanol (solvent), sodium hydroxide and acetic acid (pH adjustment), sodium chloride injection (isotonic vehicle). The formulation to be administered as a bolus injection has been shown in sponsored clinical trials to be safe containing a dose of up to about 8 mCi to 10 mCi of radiolabeled DaT2020 and delivered in a total volume of about 2.5 mL to about 5 mL.
The radioactivity of the dose of radiolabeled DaT2020 or of its radiolabeled derivatives, can be determined by one with skill in the art, e.g. by a nuclear medicine imaging technician. In addition, the total radioactivity of the actual administered dose is of relevance and not the volume administered to achieve this dose. The exact radioactive dose of the tracer administered is determined by calculating the difference between the radioactivity in the syringe and delivery system before and after injection. After the dose is delivered, the syringe is filled with a volume of saline equal to the administered dose volume. The syringe content is recounted under the same conditions as used to determine the dose; separately. […]

[3] = target: T1, DAT in the striatum; details: cited from earlier work; for time after injection until binding to striatal DAT becomes stable: post-injection, before SPECT imaging
[4] = target: DAT (Homo sapiens, UniProt Q01959); details: package insert; cited from earlier work
DAT, sequence (Q01959 whole entry, species assumed): as the sequence (Q01959 whole entry) above

Row | Structure (SMILES) | time after administration at which stable binding occurs ([1]; after administration, scanning can begin) | time at which captured energy (counts) stabilizes ([1]; during scan after administration) | SPECT image availability after i.v. injection time ([1]; post i.v. injection) | time of wash-out from DAT receptors in dopaminergic neurons ([1]; post i.v. injection) | scan time over which sufficient data for an image are collected ([1]; scan starting 15 min after administration) | safety of bolus injection formulation ([2]; dose of up to about 8 mCi to 10 mCi, total volume about 2.5 mL to about 5 mL) | effective dose ([2]; for 5 mCi of radiolabeled DaT2020) | half-life ([3]; 123I-labeled tracer) | earliest start of scanning procedure after administration ([3]; after administration) | duration for which binding remains stable ([3]; after stable binding is reached 3 hr post-injection) | time of wash-out from DAT receptors in dopaminergic neurons ([3]; post i.v. injection, comparator, 'or more') | SPECT image availability after i.v. injection time ([3]; post i.v. injection, comparator) | time after injection until binding to striatal DAT becomes stable [3] | time after injection until binding to striatal DAT becomes stable ([3]; listed as [^123I]-FP-CIT) | fraction of tracer available for DAT transporter binding in the brain tissue ([3]; rest bound to transporters other than DAT, package insert) | DAT sites bound for every one SERT site [4]
1 | COC(=O)C1C(c2ccc(F)cc2)CC2CCC1N2C/C=C/[123I] (stereo not drawn) [DaT2020, [^123I]-E-2β-carbomethoxy-3β-(4-fluorophenyl)-N-(3-iodo-E-allyl) nortropane] | 15 min | 14 to 18 min | 45 to 60 min | ≤ 60 min | 30 min | safe | approximately 4.3 mSv |  |  |  |  |  |  |  |  | 
2 | COC(=O)[C@H]1[C@@H](c2ccc(I)cc2)C[C@@H]2CC[C@H]1N2CCCF [DaTSCAN, N-ω-fluoropropyl-2β-carbomethoxy-3β-(4-iodophenyl) nortropane] |  |  |  |  |  |  |  | 13.2 h | at least 180 min | 3 h | 180 to 240 min | 180 to 240 min | 3 h and 3 to 6 h | 3 h | about 7% | two to three
